Legend:
[1] = MB-102 pig plasma concentration after IV dosing; type: in vivo; details: pig 48019, IV, 3.2 mpk
Description: (§1) Juvenile Yorkshire pigs weighing approximately 25 kg were anesthetized, their body temperature stabilized, and an IV port surgically placed. A region approximately half-way along the line between the hip and knee joint was selected as the injection site and prepared by cleaning the skin and removing any exposed hair by shaving the selected area at least twice. Similarly, the site where two Quantum Leap fluorescent sensors (disclosed in U.S. Pat. No. 10,548,521) were to be positioned (chest) was prepared by washing and shaving. After the skin was dry the sensors were attached with commercially available skin adhesive and background skin auto-fluorescence measurements were recorded. After about 20 minutes of background fluorescence collection the subject animal was dosed either intravenously (animal 48019) or subcutaneously (animals 52771, 53701 09802, or 1539) or intramuscularly (09801) with PBS-1× formulated MB-102 at 3.2 mg/kg. Injection of the appropriate volume took place over about a minute. […] At this point glomerular elimination of MB-102 by the kidneys led to a decrease of fluorescence signal over time. Blood samples (1.5 mL) were taken immediately prior to the introduction of MB-102 (0 minutes) and at 15 minute intervals throughout the procedure. Blood was collected in BD vacutainer K2EDTA tubes, spun to plasma and stored at −80° C. until analyzed. Subsequently, the processed plasma samples were thawed, diluted with PBS-1× and analyzed by HPLC or UPLC and the concentration of MB-102 determined using standard analytical techniques. Further details for each animal are provided in the examples that follow.
Subject pig, 48019, the control animal, was prepared as in Example 6 and dosed IV using 8.2 mL of 11.8 mg/mL MB-102 in PBS-1× (bolus over about 2 min).

[2] = Transdermal fluorescence signal at the chest after injection; type: in vivo, pig
Description: as §1
A sterile Mesoderm needle pack was obtained. The needle array featured five (5), 4 mm×30 gauge (0.30 mm dia) luer-hub needles arranged four (4) in a circular, symmetrical pattern (30 mm diameter) about a central needle and were attached via a distribution channel and a second luer-hub to a primary source syringe (3 mL in total deliverable volume). MB-102 API was formulated as 60 mg/mL of sodium salt in 1×PBS and placed in 5 mL serum cap vials. Immediately prior to dosing, the primary syringe was filled with a slight excess of the required amount of formulated MB-102 to achieve 3.2 mg/kg and the needle cap replaced until the subject animal and fluorescence monitor were ready for the experiment to begin and the injection initiated. Subject pig 52771 was dosed with 1.2 mL of MB-102 formulated in PBS-1× (3.2 mg/kg). […] Subject animal fluorescence was obtained during the entire course of the experiment (8 hrs) and blood samples were collected every 15 minutes, processed and stored at −80° C. Comparison of IV MB-102 plasma concentration versus time and subcutaneous MB-102 (both at 3.2 mg/kg dose) plasma concentration versus time are shown in FIG. 1.
Experimental animal Yorkshire pig, 53701, was subject to subcutaneous (subQ) administration of MB-102 as described in Example 8. […] Plasma sampling was conducted as described in Example 8 and the results (Table 1) are plotted in FIG. 1.
Experimental animal Yorkshire pig, 09802, was subject to subcutaneous (subQ) administration of MB-102 using a single needle in the same protocol as Example 8 but substituting a 2 mL syringe equipped with a single 4 mm×30 g needle. […] Plasma sampling was conducted as described in Example 8 and the results (Table 1) are plotted in FIG. 1.
Experimental animal Yorkshire pig, 09801, was subject to Intramuscular (IM) administration of MB-102 using substantially the same procedure as Example 8, but substituting a 2 mL syringe equipped with a single 13 mm×27 g needle. […] Blood sampling and processing was as described in Example 8 and the results (Table 1) are plotted in FIG. 6.
Experimental animal Yorkshire pig, 1539, was subject to subcutaneous (subQ) administration of MB-102 using a single needle in the same protocol as Example 10. […]

Work on `Nc1nc(C(=O)N[C@H](CO)C(=O)O)c(N)nc1C(=O)N[C@H](CO)C(=O)O` [MB-102, 3,6-diamino-2,5-bis{N-[(1R)-1-carboxy-2-hydroxyethyl]carbamoyl}pyrazine] yielded a concentration at 15 min ([1]; Yorkshire, plasma, 3.2 mg/kg, 15 min, read-out: MB-102 Pig Plasma Conc.) of 13000 ng/mL, a concentration at 30 min ([1]; Yorkshire, plasma, 3.2 mg/kg, 30 min, read-out: MB-102 Pig Plasma Conc.) of 9200 ng/mL and a concentration at 45 min ([1]; Yorkshire, plasma, 3.2 mg/kg, 45 min, read-out: MB-102 Pig Plasma Conc.) of 7830 ng/mL. The concentration at 60 min ([1]; Yorkshire, plasma, 3.2 mg/kg, 60 min, read-out: MB-102 Pig Plasma Conc.) was 5880 ng/mL, the concentration at 75 min ([1]; Yorkshire, plasma, 3.2 mg/kg, 75 min, read-out: MB-102 Pig Plasma Conc.) was 5430 ng/mL and the concentration at 90 min ([1]; Yorkshire, plasma, 3.2 mg/kg, 90 min, read-out: MB-102 Pig Plasma Conc.) was 4680 ng/mL. It also gave a concentration at 105 min ([1]; Yorkshire, plasma, 3.2 mg/kg, 105 min, read-out: MB-102 Pig Plasma Conc.) of 4000 ng/mL, a concentration at 120 min ([1]; Yorkshire, plasma, 3.2 mg/kg, 120 min, read-out: MB-102 Pig Plasma Conc.) of 3340 ng/mL and a concentration at 135 min ([1]; Yorkshire, plasma, 3.2 mg/kg, 135 min, read-out: MB-102 Pig Plasma Conc.) of 3250 ng/mL. It also gave a concentration at 150 min ([1]; Yorkshire, plasma, 3.2 mg/kg, 150 min, read-out: MB-102 Pig Plasma Conc.) of 2700 ng/mL, a concentration at 165 min ([1]; Yorkshire, plasma, 3.2 mg/kg, 165 min, read-out: MB-102 Pig Plasma Conc.) of 2410 ng/mL and a concentration at 180 min ([1]; Yorkshire, plasma, 3.2 mg/kg, 180 min, read-out: MB-102 Pig Plasma Conc.) of 2200 ng/mL. It also gave a concentration at 195 min ([1]; Yorkshire, plasma, 3.2 mg/kg, 195 min, read-out: MB-102 Pig Plasma Conc.) of 2000 ng/mL, a concentration at 210 min ([1]; Yorkshire, plasma, 3.2 mg/kg, 210 min, read-out: MB-102 Pig Plasma Conc.) of 1910 ng/mL and a concentration at 225 min ([1]; Yorkshire, plasma, 3.2 mg/kg, 225 min, read-out: MB-102 Pig Plasma Conc.) of 1690 ng/mL. The concentration at 240 min ([1]; Yorkshire, plasma, 3.2 mg/kg, 240 min, read-out: MB-102 Pig Plasma Conc.) was 1510 ng/mL, the concentration at 255 min ([1]; Yorkshire, plasma, 3.2 mg/kg, 255 min, read-out: MB-102 Pig Plasma Conc.) was 1400 ng/mL and the concentration at 270 min ([1]; Yorkshire, plasma, 3.2 mg/kg, 270 min, read-out: MB-102 Pig Plasma Conc.) was 1320 ng/mL. For the same compound, the concentration at 285 min ([1]; Yorkshire, plasma, 3.2 mg/kg, 285 min, read-out: MB-102 Pig Plasma Conc.) was 1140 ng/mL, the concentration at 300 min ([1]; Yorkshire, plasma, 3.2 mg/kg, 300 min, read-out: MB-102 Pig Plasma Conc.) was 1110 ng/mL and the concentration at 315 min ([1]; Yorkshire, plasma, 3.2 mg/kg, 315 min, read-out: MB-102 Pig Plasma Conc.) was 1000 ng/mL. For the same compound, the concentration at 330 min ([1]; Yorkshire, plasma, 3.2 mg/kg, 330 min, read-out: MB-102 Pig Plasma Conc.) was 917 ng/mL, the concentration at 345 min ([1]; Yorkshire, plasma, 3.2 mg/kg, 345 min, read-out: MB-102 Pig Plasma Conc.) was 859 ng/mL and the concentration at 360 min ([1]; Yorkshire, plasma, 3.2 mg/kg, 360 min, read-out: MB-102 Pig Plasma Conc.) was 819 ng/mL. The “SUM (plasma conc. over time)” value ([1]; 15-360 min) was 1,188,637 ng/mL*min, the “time until fluorescence signal first observed” value ([2]; pig 1539, single needle subcutaneous) was “after a few minutes” and the “time until fluorescence signal first observed” value ([2]; pig 09801, single needle intramuscular) was “after a few minutes”. The “time until fluorescence signal first observed” value ([2]; pig 09802, single needle subcutaneous) was “after a few minutes”, the “time until transdermal fluorescent signal detectable” value ([2]; pig 52771, multi-needle subcutaneous, 3.2 mg/kg) was “Within a few minutes” and the “time until fluorescence signal first observed” value ([2]; pig 53701, multi-needle subcutaneous) was “after a few minutes”. For the same compound, the “time until fluorescent skin signal at the chest observed” value ([2]; pigs, 3.2 mg/kg IV, subcutaneous or intramuscular, typical) was “within several minutes post injection”.

Source: patent US20220143222A1, “SUBCUTANEOUS AND INTRAMUSCULAR ADMINISTRATION OF PYRAZINE COMPOUNDS” (MediBeacon Inc., priority 2020, published 2022)
